Assay results taken from US9382244B2, “7-azaindole-2,7-naphthyridine derivative for the treatment of tumours” (Merck Patent GmbH, priority 2012, dated 2016).

Tests used:
Human ALK1 = biological target: T1, Human ALK1 (Homo sapiens, UniProt P37023); test: Test for the inhibition of ALK-1; assay type: biochemical; details: Human ALK1, casein substrate, ATP 10 μM
T1 construct: purchased ALK1
Procedure: Test for the Inhibition of ALK-1
(Serine/threonine-protein kinase receptor R3, activin receptor-like kinase 1, ALK-1, TGF-B superfamily receptor type I, TSR-I, SKR3, ACVRLK1)
Substrate: Casein, 20 mg/ml

[1] = biological target: T2, TGF-beta kinase ALK5 (GST-ALK5) (Homo sapiens, UniProt P36897); test: Test for the inhibition of ALK-5 (flashplate kinase assay); assay type: biochemical; details: enzymatic; GST-ALK5, GST-SMAD2 substrate; read-out: IC50 [nM] [TGF-beta] enzym. ALK5
T2 sequence (P36897 34-503): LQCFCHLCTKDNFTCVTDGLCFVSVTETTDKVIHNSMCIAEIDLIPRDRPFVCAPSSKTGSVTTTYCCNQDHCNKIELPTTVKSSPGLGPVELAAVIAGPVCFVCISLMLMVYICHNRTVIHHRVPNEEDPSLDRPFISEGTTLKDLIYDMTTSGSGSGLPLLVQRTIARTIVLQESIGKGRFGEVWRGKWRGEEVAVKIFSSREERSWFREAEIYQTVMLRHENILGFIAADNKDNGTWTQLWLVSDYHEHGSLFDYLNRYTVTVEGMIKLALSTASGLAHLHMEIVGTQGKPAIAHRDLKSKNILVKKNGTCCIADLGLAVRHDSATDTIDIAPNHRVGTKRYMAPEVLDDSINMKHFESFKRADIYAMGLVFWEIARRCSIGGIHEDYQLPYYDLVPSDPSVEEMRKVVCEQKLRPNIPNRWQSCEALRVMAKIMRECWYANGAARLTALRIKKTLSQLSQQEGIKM
Procedure: Test for the Inhibition of ALK-5
The experimental batches are carried out in a flashplate system with 384 wells/microtitre plate.
In each case, 31.2 nM of GST-ALK5, 439 nM of GST-SMAD2 and 3 mM of ATP (with 0.3 μCi of 33P-ATP/well) in a total volume of 35 μl of buffer (20 mM HEPES, 10 mM MgCl2, 5 mM MnCl2, 1 mM DTT, 0.1% of BSA, pH 7.4) per well are incubated without or with test substance at 5 to 10 different concentrations at 30 C for 45 min. The reaction is stopped using 25 μl of 200 mM EDTA solution and filtered off with suction after 30 min at room temperature.
The wells are washed 3 times with 100 μl of 0.9% aqueous NaCl solution, and the residual radioactivity is measured in a TopCount instrument (Perkin-Elmer). The IC50 values are calculated using the RS1 software.
The radioactivity (decompositions per minute) of the blank value (no use of test substance in the presence of 100 nM staurosporine) is subtracted from all other radioactivity values. The controls (kinase activity without test substance) are set equal to 100 percent and all other radioactivity values (after subtracting the blank value) are expressed set in relation thereto (for example in % of the control).
IC50 values (concentration of the test substance at 50% inhibition) are determined with the aid of statistics programmes, such as, for example, RS1.

[2] = tested on: TGF-beta-mediated growth inhibition, lung epithelial cell line Mv1Lu; test: Cellular TGF-beta assay: elimination of TGF-beta-mediated growth inhibition; assay type: cell-based
Procedure: In-Vitro (Enzyme) Assay for Determination of the Efficacy of the Inhibitors of the Inhibition of TGF-Beta-Mediated Effects
As an example, the ability of the inhibitors to eliminate TGF-beta-mediated growth inhibition is tested.
Cells of the lung epithelial cell line Mv1Lu are sown in a defined cell density in a 96-well microtitre plate and cultivated overnight under standard conditions. Next day, the medium is replaced by medium which comprises 0.5% of FCS and 1 ng/ml of TGF-beta, and the test substances are added in defined concentrations, generally in the form of dilution series with 5-fold steps. The concentration of the solvent DMSO is constant at 0.5%. After a further two days, Crystal Violet staining of the cells is carried out. After extraction of the Crystal Violet from the fixed cells, the absorption is measured spectrophotometrically at 550 nm. It can be used as a quantitative measure of the adherent cells present and thus of the cell proliferation during the culture.

T1 sequence (P37023 22-503): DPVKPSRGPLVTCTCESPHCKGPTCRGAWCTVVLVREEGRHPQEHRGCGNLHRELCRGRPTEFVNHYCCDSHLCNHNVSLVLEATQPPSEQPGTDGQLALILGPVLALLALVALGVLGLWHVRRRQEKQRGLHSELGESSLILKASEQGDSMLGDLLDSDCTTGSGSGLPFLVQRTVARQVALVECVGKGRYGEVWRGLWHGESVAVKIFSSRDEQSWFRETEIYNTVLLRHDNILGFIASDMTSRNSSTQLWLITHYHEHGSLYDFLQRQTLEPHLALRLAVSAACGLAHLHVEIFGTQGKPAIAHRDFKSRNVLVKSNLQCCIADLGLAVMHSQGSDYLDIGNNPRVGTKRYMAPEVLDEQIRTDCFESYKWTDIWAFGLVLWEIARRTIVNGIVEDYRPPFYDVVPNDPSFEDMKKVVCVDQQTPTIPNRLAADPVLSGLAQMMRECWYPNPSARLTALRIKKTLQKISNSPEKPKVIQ

Row | Structure (SMILES) | IC50 (Human ALK1) [nM] | IC50 [1] [nM] | IC50 [2] [nM]
1 | Cc1[nH]c2ncccc2c1-c1nccc2c(N)nccc12 [Compound A13] | 200 | 16 | 160
2 | Nc1nccc2c(-c3c[nH]c4ncccc34)nccc12 [Compound A32] | – | 43 | 770
3 | Cc1[nH]c2ncccc2c1-c1cnc(N)c2cnccc12 [4-(2-methyl-1H-pyrrolo[2,3-b]pyridin-3-yl)-2,7-naphthyridin-1-ylamine] | 79 | 4.6 | 28
4 | Nc1ncc(-c2c[nH]c3ncccc23)c2ccncc12 [Compound A24] | – | 13 | 72
